Row | SMILES | melting point [°C]
1 | N#CCc1ccc(Nc2nc(OCC3CCCCC3)c3[nH]cnc3n2)cc1 | 191 to 192
2 | OC/C=C(\c1ccccc1)c1ccc(C#Cc2ccccc2)cc1 | 115 to 117
3 | NS(=O)(=O)c1ncccc1C(=O)OC1COC1 | 140 to 142
4 | CC(C)=CCN(CC=C(C)C)Cc1noc(-c2ncn3c2[C@@H]2CCN2C(=O)c2ccccc2-3)n1 | 119 to 122
5 | CCCCC(CC)Cn1c2cc(CO)ccc2c2ccc(CO)cc21 (centres undefined) | 119 to 120
6 | N#Cc1ccc(-c2ccc(-c3ccc(C#N)o3)o2)cc1 | 194 to 195
7 | Cc1cnc(-c2ccc(C(F)(F)F)cc2)nc1Cl | 110 to 112
8 | NC1CCN(c2ccc3c4c(cccc24)C(=O)N(O)C3=O)C1 (centres undefined) | 238 to 242
9 | CN(Cc1sc2c(=O)c(C(=O)NCc3ccc(Cl)cc3)cn(C)c2c1COCC[Si](C)(C)C)CC(O)c1ccc2ccccc2n1 (centres undefined) | 163 to 166
10 | CCOC(=O)COc1cc(-n2ncc(=O)n(C)c2=O)c(Cl)cc1Cl | 115 to 117
11 | COc1nc(C)nc(NC(=O)NS(=O)(=O)c2ccccc2OC(F)(F)C(F)(F)F)n1 | 157 to 159
12 | Oc1cccc2c1C(n1ccnc1)=CCC2 | 186
13 | CCOCc1nc2c(N)nc3cc(-c4cccnc4)ccc3c2n1CC(C)(C)O | 197 to 199
14 | C[C@@H]1N=C(c2ccccc2Cl)c2cc(N)ccc2N(C)C1=O | 221
15 | Brc1ccc(-c2ccc(Br)cc2-c2nc3ccccc3[nH]2)c(-c2nc3ccccc3[nH]2)c1 | 326 to 328
16 | O=c1ccc(-c2c(-c3ccccc3)nn3ccccc23)nn1[C@@H]1CCCC[C@@H]1O (relative stereo) | 195 to 197
17 | CCCCOc1c(C(C)O)n(C)c(=O)c2cc(Cl)c(Cl)cc12 (centres undefined) | 123 to 124
18 | CC1Cn2c(=O)[nH]c3cccc(c32)CN1CCc1ccccc1 (centres undefined) | 150
19 | CC(C)(c1cccc(C(F)(F)F)c1)N1C[C@H]([C@H](Cc2ccccc2)NC(=O)c2cc(C(=O)O)c3n2CCN(S(C)(=O)=O)C3)OC1=O | 147
20 | CC(=O)c1ccc(N2CCN(c3c(C)c(C)c4c(c3C)CC(C)(C)O4)CC2)cc1 | 192 to 196
21 | CC(NC(=O)Cc1cc(F)cc(F)c1)C(=O)NC1C(=O)NC(C)c2ccccc21 (centres undefined) | 205 to 206
22 | CCn1ncc(CC(=O)O)c1OCCCc1cn(-c2ccc(C(F)(F)F)cn2)nc1C(C)C | 120 to 121
23 | COc1cc2c(cc1OC)C(=O)C(=Cc1cc(Cl)cc(Cl)c1)C2 | 227
24 | O=C(O)c1cc(-n2c(-c3ccc([N+](=O)[O-])cc3)cc3c2CCCC3)ccc1O | 241 to 242
25 | O=c1cc2c(nn1-c1ccc(Cl)cc1)-c1cc(CO)sc1CC2 | 195 to 197

Row | SMILES | melting point [°C]
26 | CC(NC(N)=C[N+](=O)[O-])C1=CCC=CC1 (centres undefined) | 120 to 125
27 | CC(C)C(=O)O[C@H](C)[C@@H](C)OC(=O)[C@@H](N)Cc1ccc(O)c(O)c1 | 165 to 166
28 | COc1ccc(C(=O)Nc2cccc(Cl)c2)cc1N | 144 to 146
29 | CCC(=O)c1ccc2c(ccn2S(=O)(=O)c2ccc(C)cc2)c1 | 162 to 164
30 | COc1cc(COc2nn(C)cc2C(C)=O)ccc1OCc1nc(-c2ccccc2)oc1C | 170 to 171
31 | CCON=C(C)c1ccc2c(c1)ncn2-c1cccc(C2=CCCN(C)C2)c1 | 138 to 143
32 | CC1(CNC(=O)C(F)(F)F)CN(C(c2ccccc2)c2ccccc2)C1 | 127 to 128
33 | CC(CCCCOCCCc1ccc(N2CCCC2)cc1)NCC(O)c1cc(O)cc(O)c1 (centres undefined) | 57 to 60
34 | O=C(C=Cc1ccccc1O)C=Cc1ccccc1O | 155
35 | COC(=O)C(NCc1cn(Cc2ccccc2)c2ccccc12)c1ccccc1 (racemic) | 72 to 75
36 | CNc1cc(C)nc2c(S(=O)(=O)c3ccc(C)cc3)c(SC)nn12 | > 230
37 | CC(C)NC1=NS(=O)(=O)c2c(cnn2C)N1 | 242 to 243
38 | O=C1CCCc2c1c1cccc(Cl)c1n2Cc1ccc(F)cc1 | 166
39 | CN(C)c1n[nH]c(=O)n1N(C)C | 93
40 | CCCCC#Cc1ccc(-c2cc(C(F)(F)F)nn2-c2ccc(S(C)(=O)=O)cc2)cc1 | 96 to 98
41 | CN(C)CCCOc1ccc(N2N=C3c4cc(F)ccc4CCC3CC2=O)cc1 (centres undefined) | 118 to 120
42 | CCOC1CCC2C3CCc4cc(OC)ccc4C3CCC12CC (centres undefined) | 74 to 77
43 | O=C(O)CN1CC(c2ccc(Cl)cc2)CC1=O (centres undefined) | 142 to 143
44 | N#Cc1ccc(NCCc2[nH]c3c(cnc4cc(Cl)ccc43)c2C=O)cc1 | 203 to 206
45 | O=C(CCCCSc1ccc(O)cc1)N1CCOCC1 | 112 to 113
46 | COC(=O)COC(=O)C(Cc1cc(=O)[nH]c2ccccc12)NC(=O)c1ccc(Cl)cc1 (centres undefined) | 202 to 204
47 | COc1ccc(-c2nc(CC(N)=O)sc2-c2ccc(OC)cc2)cc1 | 124 to 127
48 | NS(=O)(=O)c1cc(C(=O)OCC(=O)N2CCC[C@@H]2CO[N+](=O)[O-])c(NCc2ccco2)cc1Cl | 64 to 66
49 | CC(=CCO)c1ccc(-c2ccccc2)cc1 | 112 to 114
50 | Cc1cc(C)cc(C(=O)c2c(C(C)C)c(=O)[nH]c(=O)n2COCc2ccccc2)c1 | 68 to 70

Row | SMILES | melting point [°C]
51 | CC(C)(C)OC(=O)CON1C(=O)c2ccccc2C1=O | 140 to 141
52 | C=CCN(CC)c1nc(N2CCc3ccccc3CC2)c(C#N)c(=O)n1CC=C | 138 to 140
53 | COc1ccc2c(c1)[C@@]1(C(=O)O)CCCC[C@H]1CC2 (relative stereo) | 171 to 173
54 | CC(=O)OC1(C(C)=O)CCC2C3C=CC4=CC(=O)CCC4(C)C3C(F)CC21C (centres undefined) | 220 to 222
55 | CN(C)S(=O)(=O)N[Si](C)(C)C | 83 to 86
56 | CC(C)N1CCN(CCN2CCC(c3noc4cc(F)ccc34)CC2)C1=O | 121 to 123
57 | O=C(COc1ccc(Cl)cc1)C1(Cl)CC1 | 78
58 | CCOCc1nc2c(N)nc3cc(OCc4ccc(C)cc4)ccc3c2n1CC(C)C | 209 to 210
59 | CC(Cl)=CC(C#N)NC(=O)c1cn(C)nc1C (centres undefined) | 113 to 114
60 | CN1CCN(CCCCCCCCCOc2ccc3oc(-c4ccccc4)cc(=O)c3c2)CC1 | 77 to 80
61 | CCOC(=O)C(C)NC(=O)N1CCc2cc(S(=O)(=O)N3CCN(c4cccc(Cl)c4)CC3)ccc21 (centres undefined) | 167 to 168
62 | O=C1C=C(NC(=O)C(=O)c2cn(Cc3ccc4ccccc4c3)c3ccccc23)CO1 | 283 to 285
63 | NS(=O)(=O)OCCOc1ccccc1 | 89 to 91
64 | Nc1nc(-c2ccc3c(c2)OCCO3)c(-c2ccccn2)s1 | 214
65 | COCc1cc(O)cc2cc(-c3ccc(O)cc3)oc12 | 186 to 188
66 | Cc1ccc(C(C)N(O)C(=O)c2ccc(S(C)(=O)=O)cc2)o1 (centres undefined) | 177
67 | C=C1CCC2C3CCC4CC(OC(C)=O)CCC4(C)C3C(=O)CC12C (centres undefined) | 140 to 141
68 | Clc1ccc(/C=C/C2=CCN(Cc3ccc(Cl)cc3)CC2)cc1 | 127
69 | Cc1cc(C2=NN=C(C#N)Cc3cc4c(cc32)OCO4)ccc1[N+](=O)[O-] | 211 to 214
70 | Clc1ccc(Cl)c(COC2COC(c3ccccc3)OC2)c1Cl (centres undefined) | 93.5 to 94
71 | NC(=NCC(F)(F)F)Nc1ccnc(SCCCC2=NCCN2)n1 | 184 to 186
72 | O=C(CSCc1c[nH]c2ccccc12)N1CC=C(c2cccc(F)c2)CC1 | 130 to 131
73 | CN(CCc1ccccc1)S(=O)(=O)CC(=O)NO | 149 to 151
74 | CS(=O)(=O)c1ccc(-c2c(Cl)c3cccccc-3c2-c2ccccc2)cc1 | 140 to 142
75 | O=S1(=O)Cc2ccc(Cl)cc2C(c2cccc(F)c2)=NN1 | 195 to 198

Row | SMILES | melting point [°C]
76 | CCCN(CCC)S(=O)(=O)c1cc(OC)c(OC)cc1C=Cc1nc2c(c(=O)n(CCC)c(=O)n2CCC)n1C | 208
77 | CC1(OCc2ccccc2F)COC(c2cccc(F)c2)OC1 (centres undefined) | 83 to 84
78 | CCOCCn1cc2c(C3C(=O)Nc4ccc(Cl)cc43)nc(NCCN(C)C)nc2n1 (centres undefined) | 293 to 295
79 | CN1C(=O)C(C(=O)Nc2ccc(C(F)(F)F)cc2)S(=O)(=O)c2cc(F)ccc21 (centres undefined) | 146 to 148
80 | CS(=O)(=O)c1ccc(-c2cnn(CC(F)(F)F)c(=O)c2Oc2ccc(C#N)cc2)cc1 | 179 to 181
81 | ClC(=NNc1ccc(Cl)cc1)c1ccccc1 | 107 to 108
82 | O=C(O)COc1cccc2c1Cc1sc(SCCCC(c3ccccc3)c3ccccc3)nc1-2 | 110 to 112
83 | CCOC(=O)C1CCN(C(=O)c2[nH]c(C)c(-c3nc4ccc(C(=O)c5ccccc5)cc4[nH]3)c2C)CC1 | 272 to 274
84 | CCOC(=O)C1C(=O)C(C(=O)c2ccc(Cl)cc2[N+](=O)[O-])C(=O)CC1CC(C)SCC (centres undefined) | 102 to 104
85 | Cn1cc(Cl)c2c1C(=O)Nc1ccccc1N2 | 172 to 175
86 | O=C(c1ccc([N+](=O)[O-])cc1)N1Cc2ccccc2-c2ccccc21 | 153 to 154
87 | N#Cc1nc(O)c(-c2cc(O)c(O)c([N+](=O)[O-])c2)nc1C#N | > 300
88 | COC(=O)C1=C(C)NC(C)=C(S(=O)(=O)c2ccc(O)cc2)C1c1ccccc1Cl (centres undefined) | 223 to 225
89 | CCCN(CCC)C1Cc2cccc3c2N(C1)C(=O)CN3 (centres undefined) | 97 to 99
90 | CCCC(O)c1ccc(Cl)c2nc3n(c12)CCCN3c1ccc(Cl)cc1Cl (centres undefined) | 220 to 221
91 | C=Cc1cc(O)cc2nc(-c3ccc(O)cc3)oc12 | 249 to 250
92 | CCOC(=O)c1cn(C2COC2)c2c(F)c(F)cc(F)c2c1=O | 169 to 171
93 | CCn1nc(-c2ccccc2)c(C(C)=O)c(Nc2cccc(F)c2)c1=O | 176 to 178
94 | O=C(O)COCCc1ccc(Cl)cc1 | 75 to 77
95 | COc1ccc(C2CNCc3cc(C)ccc32)cc1OC (centres undefined) | 129 to 131
96 | CCOC(=O)COC(=O)c1c(I)c(NC(C)=O)c(I)c(NC(C)=O)c1I | 270
97 | O=[N+]([O-])c1ccc(-c2cccnc2)s1 | 169 to 171
98 | COc1cccc2c1CCN([C@@H]1CN3CCC1CC3)C2=O | > 290
99 | O=C(c1ccc2ccccc2c1)N1CC[C@H](NCc2ccnc3ccccc23)C[C@H]1Cc1ccccc1 (relative stereo) | 111 to 112

From a melting point compilation (Tetko et al.; mined from patent text by program, amines drawn as free bases though some values may be those of a salt)
